# Reference: ChEMBL document CHEMBL1201862, “PubChem BioAssay data set” (2004)
# Active and inactive are the calls of the source.
# Columns and labels:
# [1] = P. falciparum Dd2 growth inhibitors, dose response, SYBR Green, cherry-picked samples (AID 1159567); assay type: functional, cell-based
# [2] = toxicity to human hepatoma HepG2 cells – cell-based, cherry-picked samples, cytotoxicity control, dose response (AID 1159577); assay type: functional
# [3] = cells
# [4] = biological target: T1, Oxysterols receptor LXR-beta (Homo sapiens, UniProt P55055); assay type: functional, cell-based;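 note: Cell-based luminescence dose-response assay of agonist activity at LXR, run as a confirmatory counterscreen to a daf-12 agonist screen; HEK293 cells with Gal4-LXR fusion and GAL4-driven luciferase reporter; agonist potency from rising luciferase signal of a Gal4-LXR reporter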
# T1 sequence (P55055 whole entry): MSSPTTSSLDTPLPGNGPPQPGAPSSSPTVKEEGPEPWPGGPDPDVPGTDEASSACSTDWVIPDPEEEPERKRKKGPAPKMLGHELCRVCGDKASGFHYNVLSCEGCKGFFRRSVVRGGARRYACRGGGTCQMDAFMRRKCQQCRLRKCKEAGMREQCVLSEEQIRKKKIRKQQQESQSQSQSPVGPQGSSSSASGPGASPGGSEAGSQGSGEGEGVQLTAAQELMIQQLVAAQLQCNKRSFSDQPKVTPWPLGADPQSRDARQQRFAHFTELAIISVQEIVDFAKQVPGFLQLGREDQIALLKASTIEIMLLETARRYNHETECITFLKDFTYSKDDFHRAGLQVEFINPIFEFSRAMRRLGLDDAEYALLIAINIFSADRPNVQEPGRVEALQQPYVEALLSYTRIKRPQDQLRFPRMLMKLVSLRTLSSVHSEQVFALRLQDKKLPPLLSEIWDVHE
# [5] = biological target: T2, Sentrin-specific protease 6 (Homo sapiens, UniProt Q9GZR1); assay type: functional;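 note: Luminescence-based dose-response confirmatory assay of SENP6 inhibition, following up an ultra-high-throughput screen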
# T2 sequence (Q9GZR1 whole entry): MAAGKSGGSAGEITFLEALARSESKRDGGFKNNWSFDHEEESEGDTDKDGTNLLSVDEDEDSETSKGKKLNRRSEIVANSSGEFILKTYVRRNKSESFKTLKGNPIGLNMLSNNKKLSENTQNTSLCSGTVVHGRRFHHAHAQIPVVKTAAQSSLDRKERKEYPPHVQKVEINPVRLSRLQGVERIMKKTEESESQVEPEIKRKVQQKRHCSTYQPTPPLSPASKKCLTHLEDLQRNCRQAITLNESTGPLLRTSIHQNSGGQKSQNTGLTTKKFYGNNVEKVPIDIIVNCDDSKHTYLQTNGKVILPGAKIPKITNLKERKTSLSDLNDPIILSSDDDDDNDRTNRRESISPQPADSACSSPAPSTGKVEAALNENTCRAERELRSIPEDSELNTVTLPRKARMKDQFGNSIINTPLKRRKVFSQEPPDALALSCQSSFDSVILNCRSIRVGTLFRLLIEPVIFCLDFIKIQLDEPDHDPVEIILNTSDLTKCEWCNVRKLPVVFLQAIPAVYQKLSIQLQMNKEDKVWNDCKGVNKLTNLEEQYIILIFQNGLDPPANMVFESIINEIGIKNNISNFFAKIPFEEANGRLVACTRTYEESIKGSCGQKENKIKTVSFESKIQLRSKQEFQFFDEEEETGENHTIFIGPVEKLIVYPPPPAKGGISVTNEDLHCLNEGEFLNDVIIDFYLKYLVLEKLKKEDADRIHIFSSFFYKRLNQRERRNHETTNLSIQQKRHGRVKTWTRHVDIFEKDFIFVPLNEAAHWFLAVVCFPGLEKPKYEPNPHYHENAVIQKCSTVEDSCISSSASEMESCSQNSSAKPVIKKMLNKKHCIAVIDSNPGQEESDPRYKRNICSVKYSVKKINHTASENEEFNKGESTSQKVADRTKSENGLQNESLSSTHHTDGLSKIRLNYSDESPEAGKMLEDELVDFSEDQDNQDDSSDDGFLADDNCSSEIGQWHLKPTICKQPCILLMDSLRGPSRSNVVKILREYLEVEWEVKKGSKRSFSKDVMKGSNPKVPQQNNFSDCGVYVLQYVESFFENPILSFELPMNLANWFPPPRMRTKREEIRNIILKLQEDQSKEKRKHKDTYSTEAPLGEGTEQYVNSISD
# [6] = biological target: T3, Caspase-3 (Homo sapiens, UniProt P42574); assay type: functional;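 note: Dose-response selectivity test against caspase-3 for candidate inhibitors of sentrin-specific proteases (SENPs)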
# T3 sequence (P42574 whole entry): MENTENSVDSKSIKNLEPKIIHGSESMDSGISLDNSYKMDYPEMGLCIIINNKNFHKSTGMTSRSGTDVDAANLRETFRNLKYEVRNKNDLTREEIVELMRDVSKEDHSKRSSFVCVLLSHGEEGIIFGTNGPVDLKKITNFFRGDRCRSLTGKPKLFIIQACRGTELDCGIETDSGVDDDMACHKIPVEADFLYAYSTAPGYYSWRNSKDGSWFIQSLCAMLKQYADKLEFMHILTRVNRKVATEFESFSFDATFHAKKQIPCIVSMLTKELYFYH
# [7] = biological target: T4, Sentrin-specific protease 7 (Homo sapiens, UniProt Q9BQF6); assay type: functional;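 note: Luminescence-based dose-response confirmation of ultra-high-throughput screening hits, measuring inhibition of SENP7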
# T4 sequence (Q9BQF6 whole entry): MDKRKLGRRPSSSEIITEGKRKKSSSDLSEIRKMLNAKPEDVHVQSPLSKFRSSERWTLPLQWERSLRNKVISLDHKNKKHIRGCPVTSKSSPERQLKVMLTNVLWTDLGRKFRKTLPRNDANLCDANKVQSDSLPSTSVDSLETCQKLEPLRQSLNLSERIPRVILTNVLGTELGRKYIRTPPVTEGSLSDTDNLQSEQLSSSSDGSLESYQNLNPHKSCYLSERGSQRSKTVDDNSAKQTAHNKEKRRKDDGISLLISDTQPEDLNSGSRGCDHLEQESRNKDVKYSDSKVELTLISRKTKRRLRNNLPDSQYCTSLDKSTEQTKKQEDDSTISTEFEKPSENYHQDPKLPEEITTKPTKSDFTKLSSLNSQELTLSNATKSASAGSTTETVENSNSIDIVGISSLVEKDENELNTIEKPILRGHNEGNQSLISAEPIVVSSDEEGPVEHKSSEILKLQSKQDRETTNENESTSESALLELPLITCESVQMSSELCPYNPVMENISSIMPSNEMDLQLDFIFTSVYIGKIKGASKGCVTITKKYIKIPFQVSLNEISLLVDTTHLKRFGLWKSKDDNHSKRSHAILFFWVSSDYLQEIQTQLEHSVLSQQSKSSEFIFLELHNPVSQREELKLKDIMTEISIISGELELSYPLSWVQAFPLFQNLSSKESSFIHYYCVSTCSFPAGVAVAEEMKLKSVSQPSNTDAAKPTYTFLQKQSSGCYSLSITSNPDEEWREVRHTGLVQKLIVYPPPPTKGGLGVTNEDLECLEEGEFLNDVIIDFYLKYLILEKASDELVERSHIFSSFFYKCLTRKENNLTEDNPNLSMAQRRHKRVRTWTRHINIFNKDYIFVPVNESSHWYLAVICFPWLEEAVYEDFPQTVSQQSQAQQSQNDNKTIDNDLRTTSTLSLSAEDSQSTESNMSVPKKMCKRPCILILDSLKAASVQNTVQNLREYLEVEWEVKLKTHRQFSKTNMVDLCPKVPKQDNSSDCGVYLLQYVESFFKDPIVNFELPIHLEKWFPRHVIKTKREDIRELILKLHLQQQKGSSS
# [8] = biological target: T5, Sentrin-specific protease 8 (Homo sapiens, UniProt Q96LD8); assay type: functional;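 note: luminescence read-out of SENP8 inhibition, dose-response confirmation following an ultra-high-throughput screen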
# T5 sequence (Q96LD8 whole entry): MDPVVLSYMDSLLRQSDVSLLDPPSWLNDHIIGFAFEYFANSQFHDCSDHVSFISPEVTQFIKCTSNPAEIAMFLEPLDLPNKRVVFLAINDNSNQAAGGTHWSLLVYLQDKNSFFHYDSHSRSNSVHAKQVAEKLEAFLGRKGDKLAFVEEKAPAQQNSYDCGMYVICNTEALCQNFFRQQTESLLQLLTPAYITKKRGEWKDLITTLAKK
# [9] = biological target: T6, Protein skinhead-1 (Caenorhabditis elegans, UniProt P34707); assay type: functional
# T6 sequence (P34707 whole entry): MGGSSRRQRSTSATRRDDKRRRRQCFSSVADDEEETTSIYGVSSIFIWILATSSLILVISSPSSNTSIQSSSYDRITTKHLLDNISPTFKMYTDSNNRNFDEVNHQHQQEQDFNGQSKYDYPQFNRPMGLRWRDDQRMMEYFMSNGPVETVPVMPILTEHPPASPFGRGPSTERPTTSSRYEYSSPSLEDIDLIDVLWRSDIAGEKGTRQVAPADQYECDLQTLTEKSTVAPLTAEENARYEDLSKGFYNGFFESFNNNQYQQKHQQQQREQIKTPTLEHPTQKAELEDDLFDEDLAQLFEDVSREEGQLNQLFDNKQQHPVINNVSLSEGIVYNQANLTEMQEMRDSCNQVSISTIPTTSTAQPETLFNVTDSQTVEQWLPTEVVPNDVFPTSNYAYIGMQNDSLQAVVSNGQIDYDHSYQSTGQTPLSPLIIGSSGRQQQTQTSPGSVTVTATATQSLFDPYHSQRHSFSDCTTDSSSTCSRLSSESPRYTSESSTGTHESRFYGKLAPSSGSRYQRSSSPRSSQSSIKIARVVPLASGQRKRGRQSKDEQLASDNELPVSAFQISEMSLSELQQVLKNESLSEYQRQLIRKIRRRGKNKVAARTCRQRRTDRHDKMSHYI
# [10] = SNU-C1 cell viability reduction, dose response, CellTiter-Glo luminescence (AID 1117323); assay type: functional, cell-based
# [11] = cytotoxicity toward HT-29 cells – cell-based, CellTiter-Glo luminescence, IC50, dose response (AID 1117330); assay type: functional
# [12] = RKO cell viability reduction, dose response, CellTiter-Glo luminescence (AID 1117322); assay type: functional
# [13] = CellTiter-Glo luminescence survival assay, SW480 colon tumor line, concentration-response curve, half-maximal inhibitory concentration (AID 1117338); assay type: functional
# [14] = cytotoxicity toward HCT116 cells – cell-based, CellTiter-Glo luminescence, IC50, dose response (AID 1117332); assay type: functional; details: HCT-116
# [15] = cytotoxicity toward Colo320 cells – cell-based, CellTiter-Glo luminescence, IC50, dose response (AID 1117334); assay type: functional; details: COLO 320
# [16] = Reduced DLD-1 viability, concentration-response, CellTiter-Glo luminescence (AID 1117352); assay type: functional
# [17] = biological target: T7, Ubiquitin carboxyl-terminal hydrolase BAP1 (Homo sapiens, UniProt Q92560); assay: inhibition of BAP1 ubiquitin hydrolase activity – biochemical, dose response (AID 714); assay type: functional
# T7 sequence (Q92560 whole entry): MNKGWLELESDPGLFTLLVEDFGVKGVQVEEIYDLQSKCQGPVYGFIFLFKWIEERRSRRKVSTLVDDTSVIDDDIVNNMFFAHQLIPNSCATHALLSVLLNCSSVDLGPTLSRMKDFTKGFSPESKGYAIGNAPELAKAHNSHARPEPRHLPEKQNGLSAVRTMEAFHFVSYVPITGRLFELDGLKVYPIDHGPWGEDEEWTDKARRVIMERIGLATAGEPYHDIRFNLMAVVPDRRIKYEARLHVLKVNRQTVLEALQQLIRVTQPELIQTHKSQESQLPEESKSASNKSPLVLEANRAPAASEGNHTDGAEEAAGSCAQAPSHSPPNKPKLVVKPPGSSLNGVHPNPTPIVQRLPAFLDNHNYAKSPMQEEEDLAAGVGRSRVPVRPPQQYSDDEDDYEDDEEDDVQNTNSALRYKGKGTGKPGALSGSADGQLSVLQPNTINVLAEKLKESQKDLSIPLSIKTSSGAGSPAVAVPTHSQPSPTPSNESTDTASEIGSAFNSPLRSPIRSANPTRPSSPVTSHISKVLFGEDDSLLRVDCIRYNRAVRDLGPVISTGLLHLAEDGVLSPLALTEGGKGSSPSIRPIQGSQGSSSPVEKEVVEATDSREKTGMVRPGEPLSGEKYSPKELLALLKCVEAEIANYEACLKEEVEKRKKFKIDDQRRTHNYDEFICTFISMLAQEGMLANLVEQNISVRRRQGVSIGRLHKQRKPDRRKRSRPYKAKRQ
smiles,measurement,setting,value
COc1ccc2c3c([nH]c2c1)[C@H](CO)N(C(=O)C1CCCC1)CC31CCN(Cc2cccc(F)c2)CC1,AC50,[1],3.49 µM (active)
same,AC50,[2],9.75 µM (active)
CC1=NN(C(N)=S)C(=O)C1N=Nc1ccc(C)cc1C (stereo not drawn),EC50,[3],> 67.5 µM (inactive)
same,EC50,[4],> 67.5 µM (inactive)
Cc1ccccc1-c1nc(-c2ccc(Br)o2)no1,IC50,[5],23.5 µM (active)
same,IC50,[6],17 µM (active)
same,IC50,[7],4.23 µM (active)
same,EC50,[3],> 67.6 µM (inactive)
same,IC50,[8],35.8 µM (active)
same,IC50,[9],39.7 µM (active)
same,EC50,[4],> 67.6 µM (inactive)
CNS(=O)(=O)Cc1ccc2[nH]cc(CCN(C)C)c2c1,IC50,[10],> 20 µM (inactive)
same,IC50,[11],> 20 µM (inactive)
same,IC50,[12],> 20 µM (inactive)
same,IC50,[13],> 6.67 µM (inactive)
same,IC50,[14],> 20 µM (inactive)
same,IC50,[15],> 20 µM (inactive)
same,IC50,[16],> 20 µM (inactive)
COc1cccc(-c2nc(-c3ccccc3)no2)c1,EC50,[3],> 67.6 µM (inactive)
same,EC50,[4],> 67.6 µM (inactive)
CC(C)CC#Cc1ccc([C@@H]2[C@@H](CO)N3CCCCN(S(=O)(=O)Cc4ccccc4)C[C@@H]23)cc1,AC50,[1],5.76 µM (active)
same,AC50,[2],> 39 µM (inactive)
CCCO/C(O)=C1\C(C)=NC2=C(C(=O)CCC2)C1c1cccc(OC)c1OC (stereo not drawn),IC50,[17],33.9 µM (not active)
